Measurements published in US7825264B2, “Substituted heterocycles, their use as medicament, and pharmaceutical preparations comprising them” (sanofi-aventis, priority 2005, dated 2010).

Experiments:
Human TASK-1 channels = Human TASK-1 channels (UniProt O35111); assay: Activity on the TASK-1 channel: two-microelectrode voltage clamp on Xenopus oocytes expressing TASK-1; assay type: cell-based; details: TASK-1 expressed in Xenopus oocytes, room temperature, Hill equation; read-out: mTask-1 IC-50
Human Kv1.5 channels = target: T1, Human Kv1.5 channels (Homo sapiens, UniProt P22460); assay: Activity on the Kv1.5 channel: two-microelectrode voltage clamp on Xenopus oocytes expressing Kv1.5; assay type: cell-based; details: human Kv1.5 expressed in Xenopus oocytes, room temperature, Hill equation; read-out: Kv1.5 IC-50
T1 construct: expressed in transfected cells; host or cells: Xenopus laevis oocytes injected with RNA synthesized in vitro
Description: Determination of the Activity on the Kv1.5 Channel
Human Kv1.5 channels were expressed in xenopus oocytes. For this purpose, firstly oocytes were isolated from Xenopus laevis and defolliculated. Kv1.5-encoding RNA synthesized in vitro was then injected into these oocytes. After Kv1.5 protein expression for 1-7 days, Kv1.5 currents were measured on the oocytes using the two-microelectrode voltage clamp technique. The Kv1.5 channels were in this case usually activated with voltage jumps lasting 500 ms to 0 mV and 40 mV. A solution of the following composition flowed through the bath: NaCl 96 mM, KCl 2 mM, CaCl2 1.8 mM, MgCl2 1 mM, HEPES 5 mM (titrated to pH 7.4 with NaOH). These experiments were carried out at room temperature. The following were employed for data acquisition and analysis: Geneclamp amplifier (Axon Instruments, Foster City, USA) and MacLab D/A converter and software (ADInstruments, Castle Hill, Australia). The substances of the invention were tested by adding them in various concentrations to the bath solution. The effects of the substances were calculated as percent inhibition of the Kv1.5 control current which was obtained when no substance was added to the solution. The data were then extrapolated using the Hill equation in order to determine the inhibitory concentrations IC50 for the respective substances.

T1 sequence (P22460 whole entry): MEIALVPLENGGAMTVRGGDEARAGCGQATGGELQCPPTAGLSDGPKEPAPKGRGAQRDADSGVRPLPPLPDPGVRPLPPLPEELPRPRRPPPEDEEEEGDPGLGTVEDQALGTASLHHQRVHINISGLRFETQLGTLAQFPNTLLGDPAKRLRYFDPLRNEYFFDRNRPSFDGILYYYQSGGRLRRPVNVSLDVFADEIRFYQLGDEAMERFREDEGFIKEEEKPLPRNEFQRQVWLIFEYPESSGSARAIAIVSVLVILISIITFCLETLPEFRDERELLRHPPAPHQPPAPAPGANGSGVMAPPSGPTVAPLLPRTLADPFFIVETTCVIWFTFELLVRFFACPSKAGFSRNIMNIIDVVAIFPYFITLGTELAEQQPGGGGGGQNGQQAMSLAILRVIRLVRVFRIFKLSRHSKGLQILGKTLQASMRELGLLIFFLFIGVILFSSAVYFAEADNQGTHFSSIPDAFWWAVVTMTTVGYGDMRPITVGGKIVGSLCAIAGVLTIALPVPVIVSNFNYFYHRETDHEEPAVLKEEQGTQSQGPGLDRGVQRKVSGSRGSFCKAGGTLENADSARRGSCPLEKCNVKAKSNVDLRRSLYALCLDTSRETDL

SMILES | IC50 (Human TASK-1 channels) [µM] | IC50 (Human Kv1.5 channels) [µM]
N#Cc1ccc(O[C@H](c2ccc(F)c(F)c2)[C@H](c2ccc(F)cc2)N2CCCC2=O)cc1 (racemic) [Example 4, 4-[(1R′,2S′)-1-(3,4-Difluorophenyl)-2-(4-fluorophenyl)-2-(2-oxopyrrolidin-1-yl)ethoxy]benzonitrile] | 2.3 | 3.9
CO[C@@H](c1ccc(F)cc1)[C@H](c1ccccc1)N1CCCC1=O (racemic) [Example 88] | – | 4
O=C1CCCN1[C@@H](c1ccc(F)cc1)[C@H](OCCCC(F)(F)F)c1cccnc1 (racemic) [Example 2, 1-[(1R′,2S′)-1-(4-Fluorophenyl)-2-pyridin-3-yl-2-(4,4,4-trifluorobutoxy)-ethyl]pyrrolidin-2-one] | – | 6
N#Cc1ccc(O[C@@H](c2cccc3cccnc23)[C@@H](c2ccc(F)cc2)N2CCCC2=O)cc1 (racemic) [Example 9, 4-[(1S′,2R′)-2-(4-Fluorophenyl)-2-(2-oxopyrrolidin-1-yl)-1-quinolin-8-ylethoxy]benzonitrile] | 0.4 | 4.2
N#Cc1ccc(O[C@H](c2ccc(F)c(F)c2)[C@H](c2ccc(F)cc2)N2CCCCC2=O)cc1 (racemic) [Example 107] | – | 9.6
N#Cc1ccc(CO[C@H](c2ccc(F)c(F)c2)[C@H](c2ccc(F)cc2)N2CCCC2=O)cc1 (racemic) [Example 69] | – | 1.6
N#Cc1ccc(O[C@H](c2ccc(OC(F)(F)F)cc2)[C@H](c2ccc(F)cc2)N2CCCC2=O)cc1 (racemic) [Example 108] | – | 9
COc1ccc(CO[C@H](c2ccc(F)cc2)[C@H](c2cccc3cccnc23)N2CCCC2=O)cc1 (racemic) [Example 98] | – | 5.5
CCCO[C@H](c1ccccc1)[C@H](c1ccccn1)N1CCCC1=O (racemic) [Example 71] | – | 1.6
N#Cc1ccc(O[C@H](c2cc(F)cc(F)c2)[C@H](c2ccc(F)cc2)N2CCCC2=O)cc1 (racemic) [Example 106] | – | 8.3
CCCO[C@H](c1ccncc1)[C@H](c1ccccc1)N1CCCC1=O (racemic) [Example 97] | – | 5.4
O=C1CCCN1[C@@H](c1ccccc1)[C@H](OCC1CC1)c1ccncc1 (racemic) [Example 91] | – | 4
CO[C@H](c1ccc(F)cc1)[C@H](c1ccccc1)N1CCCC1=O (racemic) [Example 77] | – | 2.7
O=C1CCCCN1[C@@H](c1ccc(F)cc1)[C@H](OCC1CC1)c1cccc2cccnc12 (racemic) [Example 93] | – | 4.1
CS(=O)(=O)c1ccc([C@@H](OCC2CC2)[C@H](c2ccc(F)cc2)N2CCCC2=O)cc1 (racemic) [Example 61] | – | 1.8
N#Cc1ccc(O[C@H](c2ccc(F)c(F)c2)[C@H](c2cccnc2)N2CCCC2=O)cc1 (racemic) [Example 115] | – | ~10

SMILES | IC50 (Human TASK-1 channels) [µM] | IC50 (Human Kv1.5 channels) [µM]
O=C1CCCN1[C@@H](c1ccccc1)[C@@H](OCc1ccccc1)c1ccc(F)cc1 (racemic) [Example 53] | – | 1.8
O=C1CCCN1[C@@H](c1ccccc1)[C@H](Oc1ccccn1)c1ccccc1 (racemic) [Example 70] | – | 2.3
COc1ccc(CO[C@@H](c2ccccc2)[C@@H](c2ccccc2)N2CCCCC2=O)cc1 [Example 103] | – | 6.6
O=C1CCCN1[C@H](c1ccccn1)[C@H](OCC1CC1)c1ccccc1 (racemic) [Example 63] | – | 1.7
CO[C@H](c1ccccc1)[C@H](c1ccccc1)N1CCCC1=O [Example 85] | – | 3.6
O=C1CCCN1C(c1ccc(F)cc1)C(OCCCC(F)(F)F)c1cccc2cccnc12 (stereo not shown) [Example 111] | – | 8.8
CCCO[C@@H](c1ccccc1)[C@@H](c1ccccc1)N1CCCS1(=O)=O [Example 54] | – | 1.7
COc1ccc(CO[C@H](c2ccc(F)c(F)c2)[C@H](c2ccc(F)cc2)N2CCCC2=O)cc1 (racemic) [Example 48] | – | 2.1
CC#CCO[C@H](c1ccc(F)c(F)c1)[C@H](c1ccc(F)cc1)N1CCCC1=O (racemic) [Example 62] | – | 2.4
CO[C@H](c1ccc(F)cc1)[C@H](c1ccc(F)cc1)N1CCCC1=O (racemic) [Example 79] | – | 3.4
N#Cc1ccc(O[C@H](c2ccc(F)c(F)c2)[C@@H](c2ccc(F)cc2)N2CCCC2=O)cc1 (racemic) [Example 102] | – | 5.4
CO[C@@H](c1ccccc1)[C@H](c1ccccc1)N1CCCC1=O (racemic) [Example 82] | – | 3.7
COc1ccc(CO[C@H](c2ccc(F)cc2)[C@@H](c2ccc(F)cc2)N2CCCC2=O)cc1 (racemic) [Example 94] | – | 5.3
CCCO[C@H](c1ccccn1)[C@H](c1ccccc1)N1CCCC1=O (racemic) [Example 76] | – | 2.7
N#Cc1ccc(O[C@H](c2ccc(C(F)(F)F)cc2)[C@H](c2ccc(F)cc2)N2CCCC2=O)cc1 (racemic) [Example 116] | – | ~10

Stronger by IC50 (Human Kv1.5 channels), values ahead:

IC50 (Human TASK-1 channels) [µM] | IC50 (Human Kv1.5 channels) [µM] | SMILES
– | 1 | N#Cc1ccc([C@@H](OCC2CC2)[C@H](c2ccc(F)cc2)N2CCCC2=O)cc1 (racemic) [Example 41]
– | 0.5 | O=C1CCCN1[C@@H](c1ccccc1)[C@H](OCC1CC1)c1ccc(F)cc1 (racemic) [Example 44]
– | 1.4 | O=C1CCCN1[C@@H](c1ccc(F)cc1)[C@@H](OCC1CC1)c1cccc2cccnc12 (racemic) [Example 75]
– | 1.2 | CO[C@H](c1ccc(Cl)cc1)[C@H](c1ccccc1)N1CCCCC1=O (racemic) [Example 67]
– | 1 | COCCO[C@H](c1ccc(Cl)cc1)[C@H](c1ccccc1)N1CCCC1=O (racemic) [Example 47]
– | 1 | N#Cc1ccc(O[C@H](c2ccc(Cl)cc2)[C@H](c2ccccc2)N2CCCC2=O)cc1 (racemic) [Example 45]
– | 1.4 | O=C1CCCN1[C@@H](c1ccc(F)cc1)[C@H](OCC1CC1)c1ccc(C(F)(F)F)cc1 (racemic) [Example 80]
– | 0.5 | CC1CCC(=O)N1[C@@H](c1ccc(F)cc1)[C@H](OCC1CC1)c1ccc(F)c(F)c1 (mixture of isomers) [Example 35]
– | 1.5 | O=C1CCCN1[C@@H](c1cccnc1)[C@H](OCCCC(F)(F)F)c1ccc(F)cc1 (racemic) [Example 65]
– | 0.9 | O=C1CCCN1[C@@H](c1ccccc1)[C@H](OCCCC(F)(F)F)c1ccc(F)cc1 (racemic) [Example 51]
– | 0.3 | CCCO[C@H](c1ccccc1)[C@@H](c1ccccc1)N1CCCC1=O (racemic) [Example 19]
– | 0.6 | CCCO[C@H](c1ccccc1)[C@H](c1ccccc1)N1CCCS1(=O)=O [Example 7, (1S,2R)-2-(1,2-Diphenyl-2-propoxyethyl)isothiazolidine-1,1-dioxide]
– | 0.4 | CCCO[C@@H](c1ccccc1)[C@@H](c1ccccc1)N1CCCC1=O [Example 18]
– | 1.4 | C[C@@](c1ccccc1)([C@H](OCC1CC1)c1ccccc1)N1CCCC1=O (racemic) [Example 31]
– | 1.3 | COc1ccc(CO[C@H](c2ccc(Cl)cc2)[C@H](c2ccccc2)N2CCCC2=O)cc1 (racemic) [Example 60]
– | 1 | C#CCO[C@H](c1ccc(F)c(F)c1)[C@H](c1ccc(F)cc1)N1C(=O)CCC1C (mixture of isomers) [Example 26]
– | 1 | O=C1CCCN1[C@@H](c1ccc(F)cc1)[C@H](OCC1CC1)c1cccnc1 (racemic) [Example 58]
– | 0.6 | CCCO[C@H](c1ccc(C#N)cc1)[C@H](c1ccc(F)cc1)N1CCCC1=O (racemic) [Example 36]
– | 0.5 | O=C1CCCN1[C@@H](c1ccc(F)cc1)[C@H](OC1CC1)c1ccc(F)c(F)c1 (racemic) [Example 49]
– | 0.6 | O=C1CCCN1[C@@H](c1ccc(F)cc1)[C@H](OCC1CC1)c1ccc(F)c(F)c1 (racemic) [Example 42]
– | 0.5 | CCO[C@H](c1ccc(Cl)cc1)[C@H](c1ccccc1)N1CCCC1=O (racemic) [Example 68]
– | 0.16 | CCCO[C@H](c1ccccc1)[C@H](c1ccccc1)N1CCCC1=O [Example 15]
5.4 | 1.5 | CO[C@H](c1ccc(Cl)cc1)[C@H](c1ccccc1)N1CCCC1=O (racemic) [Example 46]
– | 0.8 | O=C1CCCN1[C@@H](c1ccccc1)[C@H](OCc1cccc(Cl)c1)c1ccc(Cl)cc1 (racemic) [Example 40]
– | 0.33 | O=C1CCCCN1[C@@H](c1ccc(F)cc1)[C@H](OCC1CC1)c1ccc(F)c(F)c1 (racemic) [Example 14]
– | 0.3 | O=C1CCCN1[C@@H](c1ccc(F)cc1)[C@H](OCC1CC1)c1ccc(F)cc1 (racemic) [Example 117]
– | 0.8 | C=CO[C@H](c1ccccc1)[C@H](c1ccccc1)N1CCCC1=O [Example 120, 1 S,2R-1-(1,2-Diphenyl-2-vinyloxyethyl)pyrrolidin-2-one]
– | 0.8 | O=C1CCCN1[C@@H](c1cccc2cccnc12)[C@H](OCC1CC1)c1cccnc1 (racemic) [Example 119]
– | 0.5 | O=C1CCCN1[C@H](c1ccc(F)cc1)[C@H](OCC1CC1)c1cccc2ccccc12 (racemic) [Example 12, 1-[(1R′,2R′)-2-Cyclopropylmethoxy-1-(4-fluorophenyl)-2-naphthalen-1-ylethyl]pyrrolidin-2-one]
– | 0.65 | CCCOC(c1ccc(OC)cc1)C(c1ccccc1)N1CCCC1=O (stereo not shown) [Example 23]
